Test results reported in patent publication US11406625B2, “Method of treating amyotrophic lateral sclerosis with pridopidine” (PRILENIA NEUROTHERAPEUTICS LTD., priority 2017, dated 2022).
Where two headings read alike, the source gives them in different places.

Columns and labels:
ALS patients = details: cited from earlier work
[1] = tested on: motor neurons (MNs) from spinal cord explants; assay: Axonal transport assay of Qdot-BDNF in microfluidic chamber; type: cell-based, mice; details: for velocity of BDNF axonal transport: S1R−/− (S1R KO) MNs
Source text: Healthy motor neurons (MN) extend axons over long distances and through varying extracellular microenvironments to form synapses with muscles. The ability of the neuron to maintain this specialized morphology depends on cytoskeletal elements and continuous transport of proteins and organelles to and from the cell body. Cytoskeletal alterations are a major pathway implicated in the pathogenesis of ALS affecting axonal transport, growth and neuromuscular junction (NMJ) function (Eykens and Robberecht, 2015). Alterations in axonal transport are one of the first cellular processes that occur in neurodegenerative disease, including ALS. Axonal transport was evaluated using an in vitro compartmentalized system of microfluidic chambers (MFC) that separates neuronal cell bodies from their axons and synapses, enabling the study of retrograde/anterograde transport by specific monitoring and manipulation of cellular microenvironments (FIG. 1b: Zahavi 2015; Ionescu 2016).
Quantum-Dot labeled BDNF (Qdot BDNF) is retrogradely transported in axons of motor neurons grown from spinal cord explants in a microfluidic chamber (MFC). A MFC was used to analyze Qdot BDNF axonal transport. Axonal transport of BDNF in the SOD1 model (SOD1G93A) for ALS has been studied (Bilsland 2010; Perlson 2009; De Vos 2007). The effect of pridopidine on transport of Qdot BDNF along the axons of motor neurons was assessed in spinal cord explants from E12.5 SOD1 G93A and WT littermate mice (LM). Experimental workflow for the axonal transport assay (from left to right, FIG. 1a): SOD1G93A or wild Type (LM) spinal cord explants were plated in the MFC. At about 5 days post plating, axons began to cross over into the distal compartment. On day 6 post plating, an amount of pridopidine was added to both compartments. On day 7, Qdot-BDNF was added to the distal compartment and axonal transport was imaged using a high-resolution spinning-disk confocal microscope. Schematic illustration of microfluidic chamber system (FIG. 1b): Explants planted in the proximal compartment extend axons to the distal compartment, where Qdot-BDNF is applied exclusively prior to visualization.
Spinning disk confocal microscopy was used to track Qdot BDNF along the axons of motor neuron explant cultures. Time lapse images of Qdot-BDNF axonal transport as acquired at 60× magnification (FIG. 1c). Arrowheads point to a single Qdot-BDNF particle that is retrogradely transported (left) towards the cell body. Scale bar: 10 μm. […] Scale bars: horizontal 10 μm: vertical 100 seconds (FIG. 1c).
. Six independent biological repeats, from 6 different cultures were tested so that from each culture and explant with neurons/glia ˜250 BDNF particles were followed along the axons in the grooves. Velocity refers to the movement of a single BDNF particle. The experiment was repeated with MNs from mice in which sigma 1 receptor was genetically deleted (S1R KO or S1R−/−) (Langa, 2003). Ventral spinal cord sections from S1R−/− mice embryos were cultured and plated in the MFC as described above, and the axonal transport of Qdot-BDNF was analyzed.
SOD1G93 and S1R−/− explants with or without pridopidine were compared to littermate controls (LM).
Qdot-BDNF particle tracking was performed on Bitplane Imaris, using the semi-automated spot tracking function. […]; stop duration: speed<0.1 μm/sec for 3 frames. Data were then exported to MATLAB for further analysis of particle transport including Instantaneous Velocities (FIG. 2a) from 6 independent cultures, and Stop count (FIG. 2b).

MN-myocyte co-culture = tested on: MN-myocyte co-culture
Method: Synapse disruption is the earliest cellular compartment disrupted in ALS. To test the ability of pridopidine to affect synapse function in an ALS model, cultures from Experiment 2 were grown for approximately four additional days (day 18), when axons extend into the distal compartment and generate NMJs.
Scale bar: 201 μm. […] To evaluate NMJ function, movies of muscle contraction were acquired at a frame rate of 30 frames per second for 1000 frames (FIG. 5b).
Briefly, contractile activity of muscles in the distal compartment of the MFC, which were overlapped by at least one axon was examined. Muscles were categorized into two groups: ‘Contracting’ or ‘Non-contracting’, depending on their motile activity during the movie. The motility of muscles was validated by generating intensity-over-time plots for each muscle (FIG. 5b). The number of contracting muscle fibers per chamber was divided by the total number of muscle fibers analyzed in the same chamber, yielding the percentage of contracting myotubes as an output for NMJ activity.

ERK = details: 30 minutes
Method: The ERK pathway promotes numerous cellular functions including proliferation and differentiation. […] Primary MN cultures at 2 DIV were starved overnight in neurotrophin- and serum-free medium (PNB). The following day, cultures were treated for 30 minutes with pridopidine or with BDNF as a positive control.

SOD1G93A mice = details: 30 mg/kg daily s.c. for 11 weeks
Method: Presymptomatic SOD1G93A mice (5 weeks of age) and WT controls were treated with either saline, 3 or 30 mg/kg pridopidine, by daily s.c. (subcutaneous) administration for 11 weeks (until 16 weeks of age). At the end of the experiment, lumbar spinal cords (L1-L6) were extracted, fixed, and embedded for cryosectioning.

[2] = tested on: SOD1G93A mice and WT controls; details: for increase in the muscle fiber diameter: Gastrocnemius, 30 mg/kg s.c. daily
Method: NMJ disruption and the subsequent skeletal muscle wasting are two main pathologies of ALS. Effect of pridopidine on muscle fiber atrophy and preservation of NMJs was evaluated in-vivo. Presymptomatic SOD1G93A mice and WT controls (5 weeks old) were treated with either saline, or pridopidine 3 or 30 mg/kg, by daily s.c. administration for 11 weeks. The Gastrocnemius muscles from vehicle or pridopidine-treated (30 mg/kg s.c.) mice were extracted from the SOD1G93A and WT mice at age 16 weeks. Muscle cross-sections were stained with Hematoxylin & Eosin (H& E), and the mean muscle fiber diameter was quantified for each group (FIG. 10a). NMJ preservation was evaluated by confocal imaging of co-localizing pre (NFH+Synapsin-I (green)- and post-synaptic (AchR (BTX; red) markers and counting the number of fully innervated NMJs in gastrocnemius muscles (FIG. 11a).

[3] = tested on: motor neuron axons co-cultured with primary myocytes; details: myocytes carrying SOD1G93A mutation, 1 μM
Method: Primary muscle cells from presymptomatic (P60) WT or SOD1G93A mice were cultured. On day 6 primary skeletal myoblasts were cultured in the distal compartment of a MFC. About six days later (day 12), ventral spinal cord explants from WT or SOD1G93A E12.5 mouse embryos that express HB9-GFP (a specific motor neuron marker) were plated in the proximal compartment, followed by application of pridopidine or vehicle to both compartments. Pridopidine was refreshed every other day. Two days post explant plating (day 14), motor axon growth and degeneration were evaluated using live imaging on a spinning disc confocal system. Axonal growth was tracked by imaging every 10 min for 8 hrs. Experiments were repeated three times.

[4] = tested on: human subjects afflicted with ALS; details: periodic oral administration
neuroblastoma cell line = details: S1R-dependent (Geva 2016); cited from earlier work
rat striatum = details: transcriptomic analysis; cited from earlier work
S1R = details: by activation of the S1R (Ryskamp 2017); cited from earlier work

## CC1=NN(c2ccccc2)C(=O)C1 [edaravone]
ALS patients
  physical decline: slows physical decline

## CCCN1CCC(c2cccc(S(C)(=O)=O)c2)CC1 [pridopidine, 4-(3-(Methylsulfonyl)phenyl)-1-propylpiperidine]
[1]; 0.1 μM
  velocity of BDNF axonal transport: not able to recover these defects
[1]; 1 μM
  velocity of BDNF axonal transport: not able to recover these defects
[1]; S1R−/− MNs, any of the concentrations tested
  axonal transport parameters of Qdot-BDNF: not responsive to pridopidine
[1]; SOD1G93A MNs, 0.1 μM
  instantaneous velocity of Qdot-BDNF particles: accelerated the instantaneous velocities
  particle stop count (number of counted stops of Qdot-BDNF per second): reduced the number of pauses during axonal transport
[1]; SOD1G93A MNs, 1 μM
  instantaneous velocity of Qdot-BDNF particles: accelerated the instantaneous velocities
  particle stop count (number of counted stops of Qdot-BDNF per second): reduced the number of pauses during axonal transport
[1]; WT MNs, 0.1 μM
  particle stop count (number of counted stops of Qdot-BDNF per second): reduced the number of pauses during axonal transport
[1]; WT MNs, 0.1 μM, overnight incubation
  instantaneous velocity of Qdot-BDNF particles: accelerated the instantaneous velocities
MN-myocyte co-culture; S1R−/− MNs co-cultures, 0.1μM
  percentage of contracting myocytes (neuromuscular activity): did not restore the neuromuscular activity
MN-myocyte co-culture; S1R−/− MNs co-cultures, 1 μM
  percentage of contracting myocytes: significantly lower than the percentage of contracting myocytes in untreated and treated WT cultures
MN-myocyte co-culture; SOD1G93A myocytes co-culture, 0.1μM
  percentage of contracting myocytes: increases the percentage of contracting myocytes and restores neuromuscular activity to WT levels
MN-myocyte co-culture; SOD1G93A myocytes co-culture, 1μM
  percentage of contracting myocytes: increases the percentage of contracting myocytes and restores neuromuscular activity to WT levels
MN-myocyte co-culture; muscles carrying SOD1 mutation, 1 μM
  innervation rate of muscles: increases innervation rate of muscles carrying SOD1 mutation to near WT levels
ERK; S1R−/− MN cultures, 0.1 μM and 1 μM
  activation of ERK (pERK): but not in S1R−/− MN cultures
ERK; SOD1G93A MNs, 0.1 μM
  increase in pERK (pERK/ERK ratio): ~2.9 fold
ERK; SOD1G93A MNs, 1 μM
  increase in pERK (pERK/ERK ratio): ~8.5 fold
ERK; WT MNs, 0.1 μM
  increase in pERK (pERK/ERK ratio): ~3.5 fold
ERK; WT MNs, 1 μM
  increase in pERK (pERK/ERK ratio): ~4 fold
SOD1G93A mice; spinal cord gray matter
  reduction of number of mutant SOD1 aggregates, gray matter: ~50%
SOD1G93A mice; spinal cord white matter
  reduction of number of mutant SOD1 aggregates, white matter: ~50%
[2]; SOD1G93A mice compared to WT, gastrocnemius, pridopidine treated
  loss of NMJs: ~20%
[2]; SOD1G93A mice
  increase in the muscle fiber diameter: ~4 μm
[2]; WT mice
  increase in the muscle fiber diameter: ~5 μm
[3]
  axonal growth: number of grooves with axons crossing into muscle compartment: increased number of axons crossing into the distal compartment
[4]
  symptoms of ALS in human subjects: provides a clinically meaningful advantage in reducing the symptoms of ALS
Neuroblastoma cell line
  secretion of BDNF: enhance secretion of the neuroprotective brain-derived neurotrophic factor (BDNF)
Rat striatum
  expression of BDNF, D1R, GR and Akt/PI3K pathways: activates expression
S1R
  spine impairment and aberrant calcium signaling: rescue spine impairment and aberrant calcium signaling

## Nc1nc2ccc(OC(F)(F)F)cc2s1 [riluzole, reference compound]
[1]; SOD1G93A MNs, 100l M (printed)
  instantaneous velocity of Qdot-BDNF particles: did not affect the instantaneous velocities
[1]; SOD1G93A MNs, 251M (printed)
  instantaneous velocity of Qdot-BDNF particles: did not affect the instantaneous velocities
ALS patients
  rate of progression of the disease: slows the rate of progression of the disease
